Several values for one entry are separate records, joined by “and”; a condition that tells them apart may be missing. Equal entries are not always repeated. Where two headings read alike, the source gives them in different places.
Key:
Nurr1 [1] = target: T1, Nurr1 (Homo sapiens, UniProt P43354); experiment: Gal4-Nurr1 hybrid reporter gene assay; assay type: cell-based; conditions: for selectivity index DHODH/Nurr1: IC50(DHODH) / EC50(Nurr1); for EC50 / max. activation (Nurr1): Gal4-Nurr1 hybrid reporter gene assay; for EC50: HEK293T cells, mean ± S.E.M., n ≥ 3; for max. activation (Nurr1): fold activation vs untreated control; for efficacy_NR4A2: supplementary csv, max. activation in %
T1 construct: expressed in transfected cells; host or cells: HEK293T

Nurr1 [2] = target: T1, Nurr1; conditions: cited from earlier work; for efficacy_NR4A2: supplementary csv
DHODH [3] = target: T2, DHODH (Homo sapiens, UniProt Q02127); conditions: recombinant human DHODH; cited from earlier work
T2 construct: using an N-terminally truncated recombinant DHODH enzyme as described previously[20]

DHODH [4] = target: T2, DHODH; experiment: DHODH inhibition colorimetric assay on recombinant human protein; assay type: biochemical
[5] = Gal4-Nurr1 hybrid reporter gene assay
[6] = recombinant human DHODH, colorimetric, mean ± S.E.M., n ≥ 3, read-out: IC50 (DHODH)

T1 sequence (P43354 360-595 limits assumed): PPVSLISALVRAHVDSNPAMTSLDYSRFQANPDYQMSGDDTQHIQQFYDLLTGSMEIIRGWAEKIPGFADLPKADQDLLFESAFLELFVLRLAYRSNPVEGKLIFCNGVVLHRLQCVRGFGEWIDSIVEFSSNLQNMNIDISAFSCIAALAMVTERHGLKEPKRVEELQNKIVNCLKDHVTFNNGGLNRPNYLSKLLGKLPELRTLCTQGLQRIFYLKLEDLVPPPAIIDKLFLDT
T2 sequence (Q02127 31-395): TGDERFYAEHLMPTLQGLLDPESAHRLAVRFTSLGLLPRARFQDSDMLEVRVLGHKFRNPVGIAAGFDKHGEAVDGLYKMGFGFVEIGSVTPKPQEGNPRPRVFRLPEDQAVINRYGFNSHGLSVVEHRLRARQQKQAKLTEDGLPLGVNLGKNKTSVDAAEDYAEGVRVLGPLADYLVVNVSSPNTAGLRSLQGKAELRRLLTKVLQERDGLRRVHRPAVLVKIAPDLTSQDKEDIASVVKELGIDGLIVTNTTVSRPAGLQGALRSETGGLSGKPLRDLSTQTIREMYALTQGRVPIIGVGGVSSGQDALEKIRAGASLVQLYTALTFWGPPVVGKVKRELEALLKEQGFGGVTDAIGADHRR

Compound | selectivity index DHODH/Nurr1 (Nurr1 [1]) | EC50 (Nurr1 [2]; [5]) | max. activation (Nurr1) (Nurr1 [2]; [5]) | efficacy_NR4A2 (Nurr1 [2]) | IC50 (DHODH [3]) | EC50 (Nurr1 [1]) | max. activation (Nurr1) (Nurr1 [1]) | efficacy_NR4A2 (Nurr1 [1]) | IC50 (DHODH [4]; [6]) | IC50 (DHODH [4]; supplementary csv, read-out: IC50_DHODH) | inhibition at 100 µM (DHODH [4]; recombinant human DHODH)
[2H]C([2H])([2H])Oc1cccc(-c2cc(F)c(NC(=O)C3=C(c4noc(=O)[nH]4)CCC3)c(F)c2)c1 [compound 8] | 9 | 1 ± 0.1 µM | 2.0±0.1 fold | 200% | 9.26 µM and 9 µM | – | – | – | – | – | –
[2H]C([2H])([2H])Oc1cccc(-c2c(F)c(F)c(NC(=O)C3=C(C(=O)O)CCC3)c(F)c2F)c1 [compound 10] | – | – | 1.9±0.1 fold | 188% | – | – | – | – | – | – | –
[2H]C([2H])([2H])Oc1cccc(-c2c(F)c(F)c(NC(=O)c3ccsc3S(N)(=O)=O)c(F)c2F)c1 [compound 13, Sulfamoyl-N-{2,3,5,6-tetrafluoro-3'-(^2H3)methoxy-[1,1'-biphenyl]-4-yl}thiophene-3-carboxamide] | 3.0 | – | – | – | – | 1.1 ± 0.1 µM | 2.09 ± 0.08 fold | 209% | 3.33 ± 0.06 µM | 3.3 µM | –
[2H]C([2H])([2H])Oc1cccc(-c2c(F)c(F)c(NC(=O)c3ccsc3S(=O)(=O)NC(C)=O)c(F)c2F)c1 [compound 14, 2-(N-Acetylsulfamoyl)-N-{2,3,5,6-tetrafluoro-3’-(^2H3)methoxy-[1,1'-biphenyl]-4-yl}thiophene-3-carboxamide] | 4.4 | – | – | – | – | 0.9 ± 0.1 µM | 1.89 ± 0.06 fold | 189% | 4 ± 1 µM | – | –
[2H]C([2H])([2H])Oc1cccc(-c2c(F)c(F)c(NC(=O)c3ccsc3S(C)(=O)=O)c(F)c2F)c1 [compound 15, 2-(Methylsulfonyl)-N-{2,3,5,6-tetrafluoro-3’-(^2H3)methoxy-[1,1'-biphenyl]-4-yl}thiophene-3-carboxamide] | ~100 | – | – | – | – | 1.2 ± 0.1 µM | 2.05 ± 0.08 fold | 205% | – | – | 49 ± 1%
[2H]C([2H])([2H])Oc1cccc(-c2c(F)c(F)c(NC(=O)c3ccsc3S(C)(=N)=O)c(F)c2F)c1 (stereo not drawn) [compound 16, 2-(S-Methylsulfonimidoyl)-N-{2,3,5,6-tetrafluoro-3’-(^2H3)methoxy-[1,1'-biphenyl]-4-yl}thiophene-3-carboxamide] | ~25 | – | – | – | – | 1.2 ± 0.2 µM | 2.17 ± 0.11 fold | 217% | – | – | 76 ± 6%
[2H]C([2H])([2H])Oc1cccc(-c2c(F)c(F)c(NC(=O)c3ccsc3-c3c(O)c(=O)c3=O)c(F)c2F)c1 [compound 17, 2-(2-Hydroxy-3,4-dioxocyclobut-1-en-1-yl)-N-{2,3,5,6-tetrafluoro-3’-(^2H3)methoxy-[1,1'-biphenyl]-4-yl}thiophene-3-carboxamide] | 7 | – | – | – | – | 0.1 ± 0.05 µM | 1.97 ± 0.43 fold | 197% | 0.7 ± 0.5 µM | – | –
[2H]C([2H])([2H])Oc1cccc(-c2c(F)c(F)c(NC(=O)c3ccsc3-c3noc(=O)[nH]3)c(F)c2F)c1 [compound 18, 2-(5-Oxo-4,5-dihydro-1,2,4-oxadiazol-3-yl)-N-{2,3,5,6-tetrafluoro-3’-(^2H3)methoxy-[1,1'-biphenyl]-4-yl}thiophene-3-carboxamide] | 13 | – | – | – | – | 0.05 ± 0.01 µM | 1.86 ± 0.11 fold | 186% | 0.66 ± 0.08 µM | – | –
[2H]C([2H])([2H])Oc1cccc(-c2c(F)c(F)c(NC(=O)c3ccsc3-c3nn[nH]n3)c(F)c2F)c1 [compound 19, N-{2,3,5,6-Tetrafluoro-3’-(^2H3)methoxy-[1,1'-biphenyl]-4-yl}-2-(2H-tetrazol-5-yl)thiophene-3-carboxamide] | 28 | – | – | – | – | 0.021 ± 0.002 µM | 2.14 ± 0.11 fold | 214% | 0.6 ± 0.2 µM | – | –
[2H]C([2H])([2H])Oc1cccc(-c2c(F)c(F)c(NC(=O)c3cscc3-c3noc(=O)[nH]3)c(F)c2F)c1 [compound 21, 4-(5-Oxo-4,5-dihydro-1,2,4-oxadiazol-3-yl)-N-{2,3,5,6-tetrafluoro-3’-(^2H3)methoxy-[1,1'-biphenyl]-4-yl}thiophene-3-carboxamide] | 13 | – | – | – | – | 0.03 ± 0.01 µM | 2.2±0.1 fold | 220% | 0.4 ± 0.06 µM | – | –

From paper PMC7617969, “Carboxylic Acid Bioisosteres Boost Nurr1 Agonist Selectivity” (Journal of medicinal chemistry, 2025)
